In US12435128B2, “Method for predicting therapeutic effect of LSD1 inhibitor based on expression of INSM1” (TAIHO PHARMACEUTICAL CO., LTD., priority 2017, dated 2025) one finds IC50 data, which are given here for 25 compounds.

Common to all, as to format: cell-based
Assay [1] deals with NCI-H146 cells (human small-cell lung cancer cell lines). The assay is described as follows: Cell-growth inhibition test: NCI-H146 cells. How it is done: (§1) Under the following conditions, an in vitro cell-growth inhibition test was performed with respect to HEL cells (human acute myelocytic leukemia cell lines), NCI-H1417 cells (human small-cell lung cancer cell lines), and NCI-H146 cells (human small-cell lung cancer cell lines).
(§2) The cells with the Example compound or with dimethylsulfoxide alone were cultured at 37° C. in a 5% carbon-dioxide-containing incubator for 5 days (HEL cells) or 10 days (NCI-H1417 cells and NCI-H146 cells). After culture, the plate was allowed to stand at room temperature for 30 minutes, and 100 μL of the supernatant was removed from each well to leave 100 μL of the cell culture solution. To each well containing the remaining 100 μL of the cell culture solution, the same amount of CellTiter-Glo 2.0 Assay (Promega, Cat #: G9242) was added. The microplate was shaken with a plate mixer for 1 minute and then allowed to stand in a dark place for 10 minutes. Thereafter, the luminescence intensity of viable cells in each well was measured using a microplate reader (PerkinElmer, EnSpire). […] Cell growth rate(%)=T/C×100 • T: The luminescence intensity in a well to which the test compound was added (count per second) • C: The luminescence intensity in a well to which dimethylsulfoxide alone was added (count per second)

The test system of assay [2] is HEL cells (human acute myelocytic leukemia cell lines). The assay is described as follows: Cell-growth inhibition test: HEL cells. The note with it: read-out: IC50 (nM), Cell-Growth Inhibition Test: HEL Cells. The procedure:
as §1, §2

For assay [3], the system named is NCI-H1417 cells (human small-cell lung cancer cell lines). Briefly: Cell-growth inhibition test: NCI-H1417 cells. How it is done: as §1, §2
Where [4] appears, read: Homo sapiens, NCI-H146, read-out: IC50 (nM), Cell-Growth Inhibition Test: NCI-H146 Cells.
The mark [5] stands for this setting: NCI-H146 cells, read-out: IC50 (nM), Cell-Growth Inhibition Test: NCI-H146 Cells.
[6] abbreviates: read-out: IC50 (nM), Cell-Growth Inhibition Test: NCI-H1417 Cells.
Where [7] appears, read: NCI-H1417 cells, read-out: IC50 (nM), Cell-Growth Inhibition Test: NCI-H1417 Cells.
[8] abbreviates: Homo sapiens, NCI-H1417, read-out: IC50 (nM), Cell-Growth Inhibition Test: NCI-H1417 Cells.

Molecules are shown by their SMILES. Structures can show the parent of a compound that is named as a salt. Where two headings read alike, the source gives them in different places.

`CC(C)(O)Cn1ncc2cc(-c3ccc(C(=O)N4[C@@H]5CC[C@H]4[C@@H](N)C5)cc3-c3ccc(C#N)c(F)c3)c(F)c(F)c21` (relative stereo) [Example 195, 5′-((1S,2S,4R)-rel-2-amino-7-azabicyclo[2.2.1]heptane-7-carbonyl)-2′-(6,7-difluoro-1-(2-hydroxy-2-methylpropyl)-1H-indazol-5-yl)-3-fluoro-[1,1′-biphenyl]-4-carbonitrile]: in assay [1] (setting [4]), the concentration for half-maximal inhibition (IC50) (in general, the point on the concentration scale where inhibition reaches its midpoint) was determined as 1.28 nM.
Consider `Cc1noc2cc(-c3ccc(C(=O)N4[C@@H]5CC[C@H]4[C@@H](N)C5)cc3-c3ccc(C#N)c(F)c3)c(F)cc12` (single isomer, unassigned) [Example 202], for which the IC50 amounted to 0.73 nM in assay [1] (setting [5]), 0.24 nM in assay [2] and 0.62 nM in assay [3] (setting [6]).
With `CCC(O)(CC)Cn1ncc2cc(-c3ccc(C(=O)N4[C@@H]5CC[C@H]4[C@@H](N)C5)cc3-c3ccc(C#N)c(F)c3)c(F)cc21` (single isomer, unassigned) [Example 206], the IC50 is 1.09 nM in assay [1] (setting [5]), 0.4 nM in assay [2] and 0.95 nM in assay [3] (setting [6]).
Turning to `CC(C)(O)Cn1nnc2cc(-c3ccc(C(=O)N4[C@@H]5CC[C@H]4[C@@H](N)C5)cc3-c3ccc(C#N)c(F)c3)c(F)c(Cl)c21` (single isomer, unassigned) [Example 209], the IC50 in assay [1] (setting [5]) worked out at 0.22 nM; in assay [2], 0.24 nM.
Consider `CCC(O)(CC)Cn1nnc2cc(-c3ccc(C(=O)N4[C@@H]5CC[C@H]4[C@@H](N)C5)cc3-c3ccc(C#N)c(F)c3)c(F)c(Cl)c21` (single isomer, unassigned) [Example 218], for which the IC50 in assay [1] (setting [5]) turned out to be 0.33 nM; in assay [2] it was 0.22 nM; in assay [3] (setting [6]) it was 0.21 nM.
Take `CC(C)(O)Cn1cc(C(=O)O)c2cc(-c3ccc(C(=O)N4[C@@H]5CC[C@H]4[C@@H](N)C5)cc3-c3ccc(C#N)c(F)c3)c(F)cc21` (single isomer, unassigned) [Example 222]: the IC50 came out at 38 nM in assay [2] and 41.8 nM in assay [3] (setting [6]).
Regarding `Cn1cc(C(N)=O)c2cc(-c3ccc(C(=O)N4[C@@H]5CC[C@H]4[C@@H](N)C5)cc3-c3ccc(C#N)c(F)c3)c(F)cc21` (single isomer, unassigned) [Example 236], the 50% inhibitory concentration (IC50) in assay [1] (setting [5]) came to 28.5 nM; in assay [3] (setting [6]) it was 11 nM.
Consider `CC(C)(O)Cn1nnc2cc(-c3ccc(C(=O)N4[C@@H]5CC[C@H]4[C@@H](N)C5)cc3-c3ccc(C#N)c(F)c3)c(F)c(C(F)F)c21` (single isomer, unassigned) [Example 246], for which the IC50 in assay [2] stood at 0.37 nM; in assay [3] (setting [6]), 0.81 nM.
With `N#Cc1ccc(-c2cc(C(=O)N3[C@@H]4CC[C@H]3[C@@H](N)C4)ccc2-c2cc3nnn(CC4(O)CCC4)c3c(Cl)c2F)cc1F` (single isomer, unassigned) [Example 257], the IC50 in assay [1] (setting [5]) was found to be 0.39 nM; in assay [2], 0.13 nM.
In the same order, the values of `CC(C)(O)Cn1nnc2cc(-c3ccc(C(=O)N4[C@@H]5CC[C@H]4[C@@H](N)C5)cc3-c3ccc(C#N)c(F)c3)c(F)c(Br)c21` (single isomer, unassigned) [Example 273] are 0.63 nM and 0.27 nM.
For `CC(C)(O)Cn1nnc2cc(-c3ccc(C(=O)N4[C@H]5CC[C@@H]4[C@H](N)C5)cc3-c3ccc(C#N)c(F)c3)c(F)c(C3CC3)c21` (single isomer, unassigned) [Example 279], the IC50 in assay [2] turned out to be 1.59 nM; in assay [3] (setting [6]), 0.9 nM.
For the compound `CC(C)(O)Cn1ncc2cc(-c3ccc(CN4[C@@H]5CC[C@H]4[C@@H](N)C5)cc3-c3ccc(C#N)c(F)c3)c(F)cc21` (single isomer, unassigned) [Example 287, dihydrochloride], the 50% inhibitory concentration (IC50) turned out to be 0.2 nM in assay [1] (setting [5]) and 0.1 nM in assay [3] (setting [6]).
In the same order, the values of `CC(C)(O)Cc1ccc(-c2ccc(CN3[C@@H]4CC[C@H]3[C@@H](N)C4)cc2-c2ccc(C#N)c(F)c2)c(F)c1` (single isomer, unassigned) [Example 290, dihydrochloride] are 2.12 nM and 1.06 nM.
With `Cc1ccc(-c2ccc(C(=O)N3C4CCC3CC(N)C4)cc2-c2ccc(C#N)cc2)cc1` (stereo not drawn) [Example 7, 4-[5-[(3-exo)-3-amino-8-azabicyclo[3.2.1]octane-8-carbonyl]-2-(p-tolyl)phenyl]benzonitrile], the values for the IC50 in assay [2] (HEL cells) and in assay [3] (setting [7]) were 14.8 nM and 26 nM, respectively.
Consider `Cn1cnc2cc(-c3ccc(C(=O)N4C5CCC4CC(N)C5)cc3-c3ccc(C#N)c(F)c3)c(F)cc21` (stereo not drawn) [Example 108, 4-[5-[(3-exo)-3-amino-8-azabicyclo[3.2.1]octane-8-carbonyl]-2-(6-fluoro-1-methyl-benzimidazol-5-yl)phenyl]-2-fluoro-benzonitrile], for which the figures for the IC50 in assay [2] (HEL cells) and in assay [3] (setting [7]) were 36.4 nM and 3.99 nM, respectively.
In the same order, the values of `Cn1nnc2cc(-c3ccc(C(=O)N4C5CCC4CC(N)C5)cc3-c3ccc(C#N)c(F)c3)c(F)cc21` (stereo not drawn) [Example 125, 4-[5-[(3-endo)-3-amino-8-azabicyclo[3.2.1]octane-8-carbonyl]-2-(6-fluoro-1-methyl-benzotriazol-5-yl)phenyl]-2-fluoro-benzonitrile] are 7.57 nM and 8.43 nM.
With `Cn1cnc2cc(-c3ccc(C(=O)N4C5CCC4CC(N)C5)cc3-c3ccc(C#N)c(F)c3)c(F)cc21` (stereo not drawn) [Example 130, 4-[5-[(3-endo)-3-amino-8-azabicyclo[3.2.1]octane-8-carbonyl]-2-(6-fluoro-1-methyl-benzimidazol-5-yl)phenyl]-2-fluoro-benzonitrile], the IC50 turned out to be 22.2 nM in assay [2] (HEL cells) and 8.25 nM in assay [3] (setting [7]).
In the same order, the values of `Cn1c(=O)sc2cc(-c3ccc(C(=O)N4C5CCC4CC(N)C5)cc3-c3ccc(C#N)c(F)c3)ccc21` (stereo not drawn) [Example 133, 4-[5-[(3-endo)-3-amino-8-azabicyclo[3.2.1]octane-8-carbonyl]-2-(3-methyl-2-oxo-1,3-benzothiazol-6-yl)phenyl]-2-fluoro-benzonitrile] are 17.7 nM and 17.9 nM.
In the case of `Cn1ccc2cc(-c3ccc(C(=O)N4CC[C@H](N)C4)cc3-c3ccc(C#N)c(F)c3)c(F)cc21` [Example 134, (S)-5′-(3-aminopyrrolidine-1-carbonyl)-3-fluoro-2′-(6-fluoro-1-methyl-1H-indol-5-yl)-[1,1′-biphenyl]-4-carbonitrile], the IC50 in assay [3] (setting [8]) was determined as 0.93 nM.
As for `CC(C)(O)Cn1ccc2cc(-c3ccc(C(=O)N4C5CCC4CC(N)C5)cc3-c3ccc(C#N)c(F)c3)c(F)cc21` (stereo not drawn) [Example 136, 5′-((3-endo)-3-amino-8-azabicyclo[3.2.1]octane-8-carbonyl)-3-fluoro-2′-(6-fluoro-1-(2-hydroxy-2-methylpropyl)-1H-indol-5-yl)-[1,1′-biphenyl]-4-carbonitrile], in assay [3] (setting [6]), the IC50 came to 2.39 nM.
Consider `CC(C)(O)Cn1ncc2cc(-c3ccc(C(=O)N4C5CCC4CC(N)C5)cc3-c3ccc(C#N)c(F)c3)c(F)cc21` (stereo not drawn) [Example 142, 5′-((3-endo)-3-amino-8-azabicyclo[3.2.1]octane-8-carbonyl)-3-fluoro-2′-(6-fluoro-1-(2-hydroxy-2-methylpropyl)-1H-indazol-5-yl)-[1,1′-biphenyl]-4-carbonitrile], for which the figures for the IC50 in assay [2] and in assay [3] (setting [6]) were 3.88 nM and 3.79 nM, respectively.
On to `COCCc1ccc(-c2ccc(C(=O)N3CCCC(N)CC3)cc2-c2ccc(C#N)c(F)c2)c(F)c1` (centres unmarked) [Example 165, 5′-(4-aminoazepan-1-carbonyl)-2″,3-difluoro-4″-(2-methoxyethyl)-[1,1′:2′,1″-terphenyl]-4-carbonitrile], for which the IC50 in assay [2] (Homo sapiens, HEL) is 0.62 nM; in assay [3] (setting [8]) it was 1.42 nM.
Consider `CC(C)(O)Cn1ccc2cc(-c3ccc(C(=O)C4CC5(CNC5)CN4)cc3-c3ccc(C#N)c(F)c3)c(F)c(F)c21` (centres unmarked) [Example 200, 2′-(6,7-difluoro-1-(2-hydroxy-2-methylpropyl)-1H-indol-5-yl)-3-fluoro-5′-(2,7-diazaspiro[3.4]octane-6-carbonyl)-[1,1′-biphenyl]-4-carbonitrile], for which the IC50 in assay [3] (setting [8]) worked out at 0.18 nM.
Same read-out and setting: the same measure for `CCC(O)(CC)Cn1ncc2cc(-c3ccc(C(=O)N4CC[C@H](N)C4)cc3-c3ccc(C#N)c(F)c3)c(F)cc21` [Example 204, (S)-5′-(3-aminopyrrolidine-1-carbonyl)-2′-(1-(2-ethyl-2-hydroxybutyl)-6-fluoro-1H-indazol-5-yl)-3-fluoro-[1,1′-biphenyl]-4-carbonitrile]: 1.98 nM.
In the case of `N#Cc1ccc(-c2cc(C(=O)N3CC[C@H](N)C3)ccc2-c2cc3nnn(CC4(O)CCC4)c3c(C(F)F)c2F)cc1F` [Example 261, (S)-5′-(3-aminopyrrolidine-1-carbonyl)-2′-(7-(difluoromethyl)-6-fluoro-1-((1-hydroxycyclobutyl)methyl)-1H-benzo[d][1,2,3]triazol-5-yl)-3-fluoro-[1,1′-biphenyl]-4-carbonitrile], the 50% inhibitory concentration (IC50) in assay [1] (setting [4]) was 32.3 nM.
